Laboratory results reported in ChEMBL document CHEMBL4145459, “Synthesis of (3S,4S,5S)-trihydroxylpiperidine derivatives as enzyme stabilizers to improve therapeutic enzyme activity in Fabry patient cell lines” (Eur J Med Chem, 2018).
Calls of active or inactive are those of the source. The calls are words filed in the database; no cut-off is given here.

Legend:
[1] = target: T1, Lysosomal alpha-mannosidase (Homo sapiens) (UniProt O00754); assay: Inhibition human recombinant acid alpha-mannosidase at 100 uM using p-nitrophenyl-glycopyranoside as substrate by spectrophotometric analysis
T1 sequence (whole entry): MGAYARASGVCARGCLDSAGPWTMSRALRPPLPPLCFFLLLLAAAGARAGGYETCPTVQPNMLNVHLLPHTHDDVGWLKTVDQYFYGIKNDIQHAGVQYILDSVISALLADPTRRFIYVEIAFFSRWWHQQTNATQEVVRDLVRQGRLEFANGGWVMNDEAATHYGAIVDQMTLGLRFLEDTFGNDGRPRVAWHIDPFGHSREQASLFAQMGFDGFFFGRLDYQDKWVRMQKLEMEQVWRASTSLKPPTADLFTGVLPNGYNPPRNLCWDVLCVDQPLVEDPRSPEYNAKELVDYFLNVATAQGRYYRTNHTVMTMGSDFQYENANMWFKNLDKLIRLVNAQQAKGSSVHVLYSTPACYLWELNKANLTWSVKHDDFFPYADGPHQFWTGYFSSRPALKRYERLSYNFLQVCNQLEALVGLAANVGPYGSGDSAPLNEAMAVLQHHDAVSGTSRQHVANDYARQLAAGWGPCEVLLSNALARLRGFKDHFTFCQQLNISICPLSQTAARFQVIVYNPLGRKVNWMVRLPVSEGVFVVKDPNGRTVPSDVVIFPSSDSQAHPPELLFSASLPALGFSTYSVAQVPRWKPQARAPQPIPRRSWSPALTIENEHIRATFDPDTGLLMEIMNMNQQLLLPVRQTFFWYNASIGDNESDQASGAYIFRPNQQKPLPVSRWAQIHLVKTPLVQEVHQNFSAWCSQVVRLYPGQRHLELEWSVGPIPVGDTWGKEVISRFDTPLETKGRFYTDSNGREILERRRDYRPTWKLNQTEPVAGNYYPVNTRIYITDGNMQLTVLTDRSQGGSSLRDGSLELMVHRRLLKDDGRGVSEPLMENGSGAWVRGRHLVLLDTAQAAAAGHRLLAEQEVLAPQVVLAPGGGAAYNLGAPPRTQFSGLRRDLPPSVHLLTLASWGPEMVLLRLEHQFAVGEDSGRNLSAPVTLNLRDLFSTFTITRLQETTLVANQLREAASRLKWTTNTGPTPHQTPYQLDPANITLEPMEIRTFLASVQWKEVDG

[2] = target: T2, Lysosomal acid glucosylceramidase (Homo sapiens) (UniProt P04062); assay: Inhibition of human recombinant acid beta-glucosidase at 100 uM using 4-MU-glycopyranoside as substrate by spectrophotometric analysis
T2 sequence (whole entry): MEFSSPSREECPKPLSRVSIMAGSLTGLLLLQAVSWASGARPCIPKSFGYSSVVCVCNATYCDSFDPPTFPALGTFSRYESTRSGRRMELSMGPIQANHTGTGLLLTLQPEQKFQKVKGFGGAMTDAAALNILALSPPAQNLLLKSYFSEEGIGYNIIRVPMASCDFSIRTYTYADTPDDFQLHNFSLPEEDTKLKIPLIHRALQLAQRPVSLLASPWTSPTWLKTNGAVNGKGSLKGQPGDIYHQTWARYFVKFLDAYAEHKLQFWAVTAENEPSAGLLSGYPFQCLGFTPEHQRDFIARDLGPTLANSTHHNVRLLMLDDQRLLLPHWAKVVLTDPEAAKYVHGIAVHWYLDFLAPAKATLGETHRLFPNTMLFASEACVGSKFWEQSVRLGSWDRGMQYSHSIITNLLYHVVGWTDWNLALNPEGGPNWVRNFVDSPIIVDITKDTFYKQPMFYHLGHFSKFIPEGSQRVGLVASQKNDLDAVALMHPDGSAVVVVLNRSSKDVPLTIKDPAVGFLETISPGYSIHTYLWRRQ

Lymphocyte = assay: Cytotoxicity against human lymphocytes at 100 uM after 48 to 72 hrs by AlamarBlue assay; format: cell-based
[3] = target: T3, Alpha-galactosidase A (Homo sapiens) (UniProt P06280); assay: Inhibition of human recombinant alpha-galactosidase A at 100 uM using 4-MU-alpha-d-galactopyranoside as substrate by fluorescence assay relative to control
T3 sequence (whole entry): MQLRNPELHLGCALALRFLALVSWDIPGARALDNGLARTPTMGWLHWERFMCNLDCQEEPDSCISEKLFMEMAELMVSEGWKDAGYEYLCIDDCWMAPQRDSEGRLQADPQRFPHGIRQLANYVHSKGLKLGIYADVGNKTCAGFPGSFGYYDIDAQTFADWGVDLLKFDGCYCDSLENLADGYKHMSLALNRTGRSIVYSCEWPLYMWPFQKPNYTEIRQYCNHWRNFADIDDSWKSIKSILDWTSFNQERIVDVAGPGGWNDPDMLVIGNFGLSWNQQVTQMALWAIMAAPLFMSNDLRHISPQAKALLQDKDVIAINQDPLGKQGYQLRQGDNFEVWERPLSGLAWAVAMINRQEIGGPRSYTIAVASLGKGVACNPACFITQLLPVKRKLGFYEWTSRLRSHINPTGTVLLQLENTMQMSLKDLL

[4] = target: T4, Beta-galactosidase (Homo sapiens) (UniProt P16278); assay: Inhibition of human lymphocyte beta-galactosidase at 100 uM using 4-MU-glycopyranoside as substrate by spectrophotometric analysis
T4 sequence (whole entry): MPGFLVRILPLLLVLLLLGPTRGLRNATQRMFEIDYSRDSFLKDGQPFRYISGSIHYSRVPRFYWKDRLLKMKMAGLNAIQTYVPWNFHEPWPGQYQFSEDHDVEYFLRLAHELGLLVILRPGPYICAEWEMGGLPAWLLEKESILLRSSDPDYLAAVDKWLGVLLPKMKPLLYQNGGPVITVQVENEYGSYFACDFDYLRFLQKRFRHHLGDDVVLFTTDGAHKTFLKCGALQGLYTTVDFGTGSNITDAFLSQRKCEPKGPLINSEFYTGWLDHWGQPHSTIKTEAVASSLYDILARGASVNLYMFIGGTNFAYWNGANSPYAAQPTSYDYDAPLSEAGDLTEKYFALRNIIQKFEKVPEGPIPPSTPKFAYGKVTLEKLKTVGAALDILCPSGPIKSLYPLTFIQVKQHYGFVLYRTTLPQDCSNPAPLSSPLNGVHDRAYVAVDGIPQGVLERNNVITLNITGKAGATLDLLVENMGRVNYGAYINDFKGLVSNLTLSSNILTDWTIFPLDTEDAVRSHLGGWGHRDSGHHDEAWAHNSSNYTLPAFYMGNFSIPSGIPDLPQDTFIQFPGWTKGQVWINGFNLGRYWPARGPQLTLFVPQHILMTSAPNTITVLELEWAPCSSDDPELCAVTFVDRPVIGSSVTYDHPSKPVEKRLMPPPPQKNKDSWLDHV

[5] = target: Lysosomal alpha-glucosidase (Homo sapiens) (UniProt P10253); assay: Inhibition of human recombinant acid alpha-glucosidase at 100 uM using 4-MU-glycopyranoside as substrate by spectrophotometric analysis
[6] = target: Alpha-galactosidase (Coffea arabica) (UniProt Q42656); assay: Inhibition of green coffee beans alpha-galactosidase at 100 uM using 4-MU-glycopyranoside as substrate by spectrophotometric analysis relative to control
[7] = target: T5, Alpha-glucosidase (Geobacillus stearothermophilus) (UniProt P94451); assay: Inhibition of Bacillus stearothermophilus alpha-glucosidase at 100 uM using 4-MU-glycopyranoside as substrate by spectrophotometric analysis
T5 sequence (whole entry): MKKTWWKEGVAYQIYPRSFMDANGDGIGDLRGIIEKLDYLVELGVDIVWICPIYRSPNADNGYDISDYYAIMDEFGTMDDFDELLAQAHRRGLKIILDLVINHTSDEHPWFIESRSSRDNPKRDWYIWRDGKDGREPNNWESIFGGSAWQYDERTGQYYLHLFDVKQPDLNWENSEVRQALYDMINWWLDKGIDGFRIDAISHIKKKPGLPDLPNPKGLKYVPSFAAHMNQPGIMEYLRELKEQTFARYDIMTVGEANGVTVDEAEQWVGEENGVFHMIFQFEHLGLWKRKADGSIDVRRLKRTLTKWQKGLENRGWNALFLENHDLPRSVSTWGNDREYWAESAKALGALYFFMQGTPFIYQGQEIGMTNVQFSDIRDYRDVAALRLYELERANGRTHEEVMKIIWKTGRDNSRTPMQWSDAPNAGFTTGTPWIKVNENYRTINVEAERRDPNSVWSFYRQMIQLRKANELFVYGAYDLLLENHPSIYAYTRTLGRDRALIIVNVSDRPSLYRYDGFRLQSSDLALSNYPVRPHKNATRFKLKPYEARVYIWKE

Sequence of Alpha-galactosidase (Coffea arabica) (Q42656 16-378 limits assumed): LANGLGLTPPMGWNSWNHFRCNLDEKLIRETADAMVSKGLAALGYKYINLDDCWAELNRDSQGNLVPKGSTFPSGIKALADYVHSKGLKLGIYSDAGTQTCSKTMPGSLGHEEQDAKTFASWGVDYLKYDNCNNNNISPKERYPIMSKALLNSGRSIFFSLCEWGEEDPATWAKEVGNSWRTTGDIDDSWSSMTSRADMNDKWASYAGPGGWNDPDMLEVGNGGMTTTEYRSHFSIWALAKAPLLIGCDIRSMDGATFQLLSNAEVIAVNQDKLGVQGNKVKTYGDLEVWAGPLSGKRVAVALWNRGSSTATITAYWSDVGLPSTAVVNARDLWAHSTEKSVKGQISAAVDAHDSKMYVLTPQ

COc1ccc(OC)c(/C=C/C(=O)NC[C@H]2NC[C@H](O)[C@@H](O)[C@H]2O)c1
inhibition [1]: inactive
inhibition [2]: inactive
Activity (Lymphocyte): Non-Toxic
inhibition [3]: 99%
inhibition [4]: inactive
inhibition [5]: inactive
inhibition [6]: 57%
inhibition [7]: inactive
